Measured values taken from patent US10202389B2, “Pyrazolopyrimidinyl inhibitors of ubiquitin-activating enzyme” (Millennium Pharmaceuticals, Inc., priority 2012, dated 2019).

Target: recombinant human UAE (Homo sapiens (Human), UniProt P22314)
Experiment: Ubiquitin Activating Enzyme (UAE) HTRF Assay
Conditions: read-out: % inhibition @0.111 μM
Protocol: After incubation for 120 minutes, quantification of the FRET is performed on the Pherostar (BMG).
For compounds whose values are marked with an asterisk (*), mouse UAE was used. For all other compounds, human UAE was used.

recombinant human UAE, sequence (P22314 whole entry): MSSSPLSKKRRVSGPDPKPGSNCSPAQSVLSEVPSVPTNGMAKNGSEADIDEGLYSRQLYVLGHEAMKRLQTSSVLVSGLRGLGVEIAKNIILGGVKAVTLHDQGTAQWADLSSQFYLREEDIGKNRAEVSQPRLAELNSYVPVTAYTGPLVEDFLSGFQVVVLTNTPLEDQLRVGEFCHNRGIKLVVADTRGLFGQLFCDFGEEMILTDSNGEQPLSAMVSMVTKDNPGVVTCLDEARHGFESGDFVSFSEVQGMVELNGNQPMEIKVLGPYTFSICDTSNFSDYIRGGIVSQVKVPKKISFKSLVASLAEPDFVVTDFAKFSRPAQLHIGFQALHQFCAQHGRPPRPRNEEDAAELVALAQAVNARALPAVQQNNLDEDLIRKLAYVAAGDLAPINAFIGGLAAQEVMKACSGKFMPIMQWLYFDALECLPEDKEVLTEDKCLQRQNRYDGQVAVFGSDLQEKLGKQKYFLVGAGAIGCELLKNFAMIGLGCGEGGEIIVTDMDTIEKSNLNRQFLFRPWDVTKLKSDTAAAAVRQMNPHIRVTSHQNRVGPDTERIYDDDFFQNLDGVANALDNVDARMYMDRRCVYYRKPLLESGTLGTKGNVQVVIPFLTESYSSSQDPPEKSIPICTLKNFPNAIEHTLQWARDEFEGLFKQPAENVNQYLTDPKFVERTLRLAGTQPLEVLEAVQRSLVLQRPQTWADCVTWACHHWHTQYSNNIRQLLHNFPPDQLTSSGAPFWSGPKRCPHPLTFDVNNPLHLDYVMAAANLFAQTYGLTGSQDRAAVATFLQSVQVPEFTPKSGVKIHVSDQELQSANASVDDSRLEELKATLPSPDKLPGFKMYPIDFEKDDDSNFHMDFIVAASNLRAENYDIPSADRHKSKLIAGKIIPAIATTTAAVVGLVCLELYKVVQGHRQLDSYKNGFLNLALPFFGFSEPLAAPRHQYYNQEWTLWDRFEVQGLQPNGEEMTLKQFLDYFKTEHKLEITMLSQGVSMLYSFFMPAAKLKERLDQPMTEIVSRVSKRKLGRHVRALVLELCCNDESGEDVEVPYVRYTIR

Row | Compound | inhibition at 0.111 µM
1 | NS(=O)(=O)OC[C@H]1C[C@@H](Nc2ccnc3cc(-c4ccnc5cc(Cl)ccc45)nn23)[C@H](O)[C@@H]1O (relative stereo) [Compound I-039, (rac)-((1R,2R,3S,4R)-4-(2-(7-chloroquinolin-4-yl)pyrazolo[1,5-a]pyrimidin-7-ylamino)-2,3-dihydroxycyclopentyl)methyl rel-sulfamate] | 100%
2 | NS(=O)(=O)OC[C@H]1C[C@@H](Nc2ccnc3cc(-c4cccc5cc(C(=O)O)ccc45)nn23)[C@H](O)[C@@H]1O (relative stereo) [Compound I-099, (rac)-rel-5-[7-({(1R,2S,3R,4R)-2,3-dihydroxy-4-[(sulfamoyloxy)methyl]cyclopentyl}amino)pyrazolo[1,5-a]pyrimidin-2-yl]-2-naphthoic acid] | 100%
3 | CC1(C)OCc2ccc(-c3cc4nccc(N[C@@H]5C[C@H](COS(N)(=O)=O)[C@@H](O)[C@H]5O)n4n3)cc21 (relative stereo) [Compound I-053, (rac)-((1R,2R,3S,4R)-4-(2-(3,3-dimethyl-1,3-dihydroisobenzofuran-5-yl)pyrazolo[1,5-a]pyrimidin-7-ylamino)-2,3-dihydroxycyclopentyl)methyl rel-sulfamate] | 100%
4 | NS(=O)(=O)OC[C@H]1C[C@@H](Nc2ccnc3cc(-c4cncc5ccccc45)nn23)[C@H](O)[C@@H]1O (relative stereo) [Compound I-018, (rac)-((1R,2R,3S,4R)-2,3-dihydroxy-4-(2-(isoquinolin-4-yl)pyrazolo[1,5-a]pyrimidin-7-ylamino)cyclopentyl)methyl rel-sulfamate] | 100%
5 | CC1(C)CCc2ccc(-c3cc4nccc(N[C@@H]5C[C@H](COS(N)(=O)=O)[C@@H](O)[C@H]5O)n4n3)cc21 (relative stereo) [Compound I-041, (rac)-((1R,2R,3S,4R)-4-(2-(3,3-dimethyl-2,3-dihydro-1H-inden-5-yl)pyrazolo[1,5-a]pyrimidin-7-ylamino)-2,3-dihydroxycyclopentyl)methyl rel-sulfamate] | 99%
6 | NS(=O)(=O)OC[C@H]1C[C@@H](Nc2ccnc3cc(-c4c[nH]c5cc(Cl)ccc45)nn23)[C@H](O)[C@@H]1O (relative stereo) [Compound I-055, (rac)-[(1R,2R,3S,4R)-4-{[2-(6-chloro-1H-indol-3-yl)pyrazolo[1,5-a]pyrimidin-7-yl]amino}-2,3-dihydroxycyclopentyl]methyl rel-sulfamate] | 100%
7 | COc1ccc(-c2cc3nc(Cl)cc(N[C@@H]4C[C@H](COS(N)(=O)=O)[C@@H](O)[C@H]4O)n3n2)cc1 (relative stereo) [Compound I-014, (rac)-[(1R,2R,3S,4R)-4-{[5-chloro-2-(4-methoxyphenyl)pyrazolo[1,5-a]pyrimidin-7-yl]amino}-2,3-dihydroxycyclopentyl]methyl rel-sulfamate] | 30%
8 | NS(=O)(=O)OC[C@H]1C[C@@H](Nc2ccnc3cc(-c4ccc(OC(F)F)c5ccccc45)nn23)[C@H](O)[C@@H]1O [Compound I-112, (s.e.)-((1R,2R,3S,4R)-4-(2-(4-(difluoromethoxy)naphthalen-1-yl)pyrazolo[1,5-a]pyrimidin-7-ylamino)-2,3-dihydroxycyclopentyl)methyl sulfamate] | 100%
9 | NS(=O)(=O)OC[C@H]1C[C@@H](Nc2ccnc3cc(-c4ccc5c(c4)C(=O)c4ccccc4-5)nn23)[C@H](O)[C@@H]1O (relative stereo) [Compound I-085, (rac)-((1R,2R,3S,4R)-2,3-dihydroxy-4-(2-(9-oxo-9H-fluoren-2-yl)pyrazolo[1,5-a]pyrimidin-7-ylamino)cyclopentyl)methyl rel-sulfamate] | 99%
10 | NS(=O)(=O)OC[C@H]1C[C@@H](Nc2ccnc3cc(-c4ccc5ccccc5n4)nn23)[C@H](O)[C@@H]1O (relative stereo) [Compound I-042, (rac)-((1R,2R,3S,4R)-2,3-dihydroxy-4-(2-(quinolin-2-yl)pyrazolo[1,5-a]pyrimidin-7-ylamino)cyclopentyl)methyl rel-sulfamate] | 100%
11 | NS(=O)(=O)OC[C@H]1C[C@@H](Nc2ccnc3cc(-c4cccc5ccsc45)nn23)[C@H](O)[C@@H]1O (relative stereo) [Compound I-045, (rac)-((1R,2R,3S,4R)-4-((2-(Benzo[b]thiophen-7-yl)pyrazolo[1,5-a]pyrimidin-7-yl)amino)-2,3-dihydroxycyclopentyl)methyl rel-sulfamate] | 100%
12 | NS(=O)(=O)OC[C@H]1C[C@@H](Nc2ccnc3cc(-c4coc5ccc(Cl)cc45)nn23)[C@H](O)[C@@H]1O (relative stereo) [Compound I-092, (rac)-((1R,2R,3S,4R)-4-(2-(5-chlorobenzofuran-3-yl)pyrazolo[1,5-a]pyrimidin-7-ylamino)-2,3-dihydroxycyclopentyl)methyl rel-sulfamate] | 100%
13 | NS(=O)(=O)OC[C@H]1C[C@@H](Nc2ccnc3cc(-c4cc5ccc(Cl)cc5s4)nn23)[C@H](O)[C@@H]1O (relative stereo) [Compound I-088, (rac)-((1R,2R,3S,4R)-4-(2-(6-chlorobenzo[b]thiophen-2-yl)pyrazolo[1,5-a]pyrimidin-7-ylamino)-2,3-dihydroxycyclopentyl)methyl rel-sulfamate] | 97%
14 | C[Si](C)(C)c1cccc(-c2cc3nccc(N[C@@H]4C[C@H](COS(N)(=O)=O)[C@@H](O)[C@H]4O)n3n2)c1 (relative stereo) [Compound I-035, (rac)-((1R,2R,3S,4R)-2,3-dihydroxy-4-(2-(3-(trimethylsilyl)phenyl)pyrazolo[1,5-a]pyrimidin-7-ylamino)cyclopentyl)methyl rel-sulfamate] | 100%
15 | COC(=O)c1ccc2c(-c3cc4nccc(N[C@@H]5C[C@H](COS(N)(=O)=O)[C@@H](O)[C@H]5O)n4n3)cccc2c1 (relative stereo) [Compound I-096, (rac)-methyl rel-5-[7-({(1R,2S,3R,4R)-2,3-dihydroxy-4-[(sulfamoyloxy)methyl]cyclopentyl}amino)pyrazolo[1,5-a]pyrimidin-2-yl]-2-naphthoate] | 100%
16 | NS(=O)(=O)OC[C@H]1C[C@@H](Nc2ccnc3cc(-c4cccc5sccc45)nn23)[C@H](O)[C@@H]1O (relative stereo) [Compound I-061, (rac)-((1R,2R,3S,4R)-4-((2-(Benzo[b]thiophen-4-yl)pyrazolo[1,5-a]pyrimidin-7-yl)amino)-2,3-dihydroxycyclopentyl)methyl rel-sulfamate] | 100%

Further lines, results first:

Row | inhibition at 0.111 µM | Compound
17 | 100% | COC(C)(C)c1cccc(-c2cc3nccc(N[C@@H]4C[C@H](COS(N)(=O)=O)[C@@H](O)[C@H]4O)n3n2)c1 (relative stereo) [Compound I-082, (rac)-((1R,2R,3S,4R)-2,3-dihydroxy-4-(2-(3-(2-methoxypropan-2-yl)phenyl)pyrazolo[1,5-a]pyrimidin-7-ylamino)cyclopentyl)methyl rel-sulfamate]
18 | 100% | COc1ccc(OC(F)(F)F)cc1-c1cc2nccc(N[C@@H]3C[C@H](COS(N)(=O)=O)[C@@H](O)[C@H]3O)n2n1 [Compound I-102, (s.e)-[(1R,2R,3S,4R)-2,3-dihydroxy-4-({2-[2-methoxy-5-(trifluoromethoxy)-phenyl]pyrazolo[1,5-a]pyrimidin-7-yl}amino)cyclopentyl]methyl sulfamate]
19 | 97% | Cn1cc(-c2cccc(-c3cc4nccc(N[C@@H]5C[C@H](COS(N)(=O)=O)[C@@H](O)[C@H]5O)n4n3)c2)cn1 (relative stereo) [Compound I-122, (rac)-[(1R,2R,3S,4R)-2,3-dihydroxy-4-({2-[3-(1-methyl-1H-pyrazol-4-yl)phenyl]pyrazolo[1,5-a]pyrimidin-7-yl}amino)cyclopentyl]methyl rel-sulfamate]
20 | 100% | NS(=O)(=O)OC[C@H]1C[C@@H](Nc2ccnc3cc(-c4ccc5cccnc5c4)nn23)[C@H](O)[C@@H]1O (relative stereo) [Compound I-043, (rac)-((1R,2R,3S,4R)-2,3-dihydroxy-4-(2-(quinolin-7-yl)pyrazolo[1,5-a]pyrimidin-7-ylamino)cyclopentyl)methyl rel-sulfamate]
21 | 100% | COc1ccc(OC(F)(F)F)cc1-c1cc2nccc(N[C@@H]3C[C@H](COS(N)(=O)=O)[C@@H](O)[C@H]3O)n2n1 (relative stereo) [Compound I-066, (rac)-((1R,2R,3S,4R)-2,3-Dihydroxy-4-((2-(2-methoxy-5-(trifluoromethoxy)-phenyl)pyrazolo[1,5-a]pyrimidin-7-yl)amino)cyclopentyl)methyl rel-sulfamate]
22 | 100% | COc1ccc(C(F)(F)F)cc1-c1cc2nccc(N[C@@H]3C[C@H](COS(N)(=O)=O)[C@@H](O)[C@H]3O)n2n1 (relative stereo) [Compound I-065, (rac)-((1R,2R,3S,4R)-2,3-Dihydroxy-4-((2-(2-methoxy-5-(trifluoromethyl)phenyl)-pyrazolo[1,5-a]pyrimidin-7-yl)amino)cyclopentyl)methyl rel-sulfamate]
23 | 100% | NS(=O)(=O)OC[C@H]1C[C@@H](Nc2ccnc3cc(-c4cccc(SC(F)(F)F)c4)nn23)[C@H](O)[C@@H]1O (relative stereo) [Compound I-044, (rac)-((1R,2R,3S,4R)-2,3-dihydroxy-4-(2-(3-(trifluoromethylthio)phenyl)pyrazolo[1,5-a]pyrimidin-7-ylamino)cyclopentyl)methyl rel-sulfamate]
24 | 100% | CC(CO)(CCl)c1cccc(-c2cc3nccc(N[C@@H]4C[C@H](COS(N)(=O)=O)[C@@H](O)[C@H]4O)n3n2)c1 (relative stereo) [Compound I-123, (rac)-{(1R,2R,3S,4R)-4-[(2-{3-[2-chloro-1-(hydroxymethyl)-1-methylethyl]phenyl}pyrazolo[1,5-a]pyrimidin-7-yl)amino]-2,3-dihydroxycyclopentyl}methyl rel-sulfamate]
25 | 99% | NS(=O)(=O)OC[C@H]1C[C@@H](Nc2ccnc3cc(-c4cccc(Br)c4)nn23)[C@H](O)[C@@H]1O (relative stereo) [Compound I-028, (rac)-((1R,2R,3S,4R)-4-((2-(3-Bromophenyl)pyrazolo[1,5-a]pyrimidin-7-yl)amino)-2,3-dihydroxycyclopentyl)methyl rel-sulfamate]
